According to PubChem BioAssay AID330 (DTP/NCI, 2004):
Where “and” joins values, the source holds several entries; their conditions need not be identical. Equal values may be shown once. Inconclusive results and toxic doses are left out. Peptide text beside a SMILES is read from it.

Test system: P388 leukemia ip, CD2F1 mice, survival T/C
Test: NCI In Vivo Anticancer Drug Screen. Data for tumor model P388 Leukemia (intraperitoneal) in CD2F1 (CDF1) mice
Conditions: endpoint: median survival time, higher = longer survival
Outline: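 Mice carrying the transplanted tumor received test compound or vehicle. Survival was recorded in each group, and the value is the treated-group measurement divided by that of the vehicle-treated control group.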

[1] = dose: 50.0 mg/kg/injection, schedule: Q01DX009 (ip), vehicle: saline
[2] = dose: 100.0 mg/kg/injection, schedule: Q01DX009 (ip), vehicle: saline
[3] = dose: 200.0 mg/kg/injection, schedule: Q01DX009 (ip), vehicle: saline
[4] = dose: 50.0 mg/kg/injection, schedule: Q01DX005 (ip), vehicle: saline
[5] = dose: 100.0 mg/kg/injection, schedule: Q01DX005 (ip), vehicle: saline
[6] = dose: 50.0 mg/kg/injection, schedule: Q01DX009 (ip), vehicle: saline with Tween-80
[7] = dose: 100.0 mg/kg/injection, schedule: Q01DX009 (ip), vehicle: saline with Tween-80
[8] = dose: 200.0 mg/kg/injection, schedule: Q01DX009 (ip), vehicle: saline with Tween-80
[9] = dose: 6.25 mg/kg/injection, schedule: Q01DX009 (ip), vehicle: saline with Tween-80
[10] = dose: 12.5 mg/kg/injection, schedule: Q01DX009 (ip), vehicle: saline with Tween-80
[11] = dose: 100.0 mg/kg/injection, schedule: Q04DX003 (ip), vehicle: saline with Tween-80
[12] = dose: 200.0 mg/kg/injection, schedule: Q04DX003 (ip), vehicle: saline with Tween-80
[13] = dose: 50.0 mg/kg/injection, schedule: Q01DX005 (ip), vehicle: Klucel (hydroxypropylcellulose) (HPC)
[14] = dose: 100.0 mg/kg/injection, schedule: Q01DX005 (ip), vehicle: Klucel (hydroxypropylcellulose) (HPC)
[15] = dose: 200.0 mg/kg/injection, schedule: Q01DX005 (ip), vehicle: Klucel (hydroxypropylcellulose) (HPC)
[16] = dose: 60.0 mg/kg/injection, schedule: Q01DX005 (ip), vehicle: saline with Tween-80
[17] = dose: 120.0 mg/kg/injection, schedule: Q01DX005 (ip), vehicle: saline with Tween-80
[18] = dose: 240.0 mg/kg/injection, schedule: Q01DX005 (ip), vehicle: saline with Tween-80
[19] = dose: 25.0 mg/kg/injection, schedule: Q01DX009 (ip), vehicle: saline with Tween-80
[20] = dose: 12.5 mg/kg/injection, schedule: Q01DX009 (ip), vehicle: saline
[21] = dose: 25.0 mg/kg/injection, schedule: Q01DX009 (ip), vehicle: saline

For `COC(=O)C1(CC(C)=O)NC(=S)NC(=O)C1C#N` (stereo unspecified), the T/C (dose: 60.0 mg/kg/injection, schedule: Q01DX005 (ip), vehicle: saline) was 100 % of control, the T/C (dose: 120.0 mg/kg/injection, schedule: Q01DX005 (ip), vehicle: saline) was 96 % of control and the T/C (dose: 240.0 mg/kg/injection, schedule: Q01DX005 (ip), vehicle: saline) was 97 % of control.

`COc1cc2c[n+](C)c3c4cc(OC)c(OCc5ccccc5)cc4c(OCc4ccccc4)cc3c2cc1OC` was tested, and the T/C (dose: 3.12 mg/kg/injection, schedule: Q01DX005 (ip), vehicle: Klucel (hydroxypropylcellulose) (HPC)) was 100 % of control, the T/C (dose: 6.25 mg/kg/injection, schedule: Q01DX005 (ip), vehicle: Klucel (hydroxypropylcellulose) (HPC)) was 100 % of control and the T/C (dose: 12.5 mg/kg/injection, schedule: Q01DX005 (ip), vehicle: Klucel (hydroxypropylcellulose) (HPC)) was 98 % of control.

In the case of `O=C1CSC(=S)N1c1ccc(N=Nc2ccccc2)cc1`, the T/C [1] is reported as 98 % of control, the T/C [2] is reported as 99 % of control and the T/C [3] is reported as 86 % of control.

For `CC1OP(=S)(S)OC1C` (stereo unspecified), the T/C [4] was 95 % of control and the T/C [5] was 100 % of control.

For `CCCCCc1c(-c2n[nH]c(C)c2CCCCC)n[nH]c1C`, the T/C (dose: 60.0 mg/kg/injection, schedule: Q01DX005 (ip), vehicle: Klucel (hydroxypropylcellulose) (HPC)) was 92 % of control, the T/C (dose: 120.0 mg/kg/injection, schedule: Q01DX005 (ip), vehicle: Klucel (hydroxypropylcellulose) (HPC)) was 96 % of control and the T/C (dose: 240.0 mg/kg/injection, schedule: Q01DX005 (ip), vehicle: Klucel (hydroxypropylcellulose) (HPC)) was 100 % of control.

For `Cc1ccc(S(=O)(=O)C(=O)N2CCN(C(=O)S(=O)(=O)c3ccc(C)cc3)CC2)cc1`, the T/C [6] was 100 % of control, the T/C [7] was 107 % of control and the T/C [8] was 109 % of control.

With `[Cl][Zr][Cl].[c-]1[c-][c-][c-](Cc2ccccc2)[c-]1.[c-]1[c-][c-][c-](Cc2ccccc2)[c-]1` the T/C (dose: 3.12 mg/kg/injection, schedule: Q01DX009 (ip), vehicle: saline with Tween-80) was 104 % of control, the T/C [9] was 89 % of control and the T/C [10] was 86 % of control.

In the case of `OCCOc1ccc2ccccc2c1-c1c(OCCO)ccc2ccccc12`, the T/C (dose: 50.0 mg/kg/injection, schedule: Q04DX003 (ip), vehicle: saline with Tween-80) is reported as 100 % of control, the T/C [11] is reported as 100 % of control and the T/C [12] is reported as 100 % of control. For the same molecule, the T/C (dose: 400.0 mg/kg/injection, schedule: Q04DX003 (ip), vehicle: saline with Tween-80) was 100 % of control.

For `N#C/C(=C/N)C(N)=O`, the T/C [6] was 104 % of control, the T/C [7] was 103 % of control and the T/C [8] was 103 % of control.

For `COc1cc2c(cc1OC)C(C)N1CCc3cc(OC)c(OC)cc3C1C2` (stereo unspecified), the T/C (dose: 1.56 mg/kg/injection, schedule: Q01DX009 (ip), vehicle: Klucel (hydroxypropylcellulose) (HPC)) was 103 % of control and the T/C (dose: 3.12 mg/kg/injection, schedule: Q01DX009 (ip), vehicle: Klucel (hydroxypropylcellulose) (HPC)) was 98 % of control.

`CCCCCCCCCCCCOC(=O)c1ccc(O)cc1` was tested, and the T/C (dose: 50.0 mg/kg/injection, schedule: Q01DX009 (ip), vehicle: Klucel (hydroxypropylcellulose) (HPC)) was 98 % of control and the T/C (dose: 100.0 mg/kg/injection, schedule: Q01DX009 (ip), vehicle: Klucel (hydroxypropylcellulose) (HPC)) was 94 % of control.

In the case of `CCN(CC)CCSS(=O)(=O)CCN(CC)CC`, the T/C [4] is reported as 100 % of control and the T/C [5] is reported as 109 % of control.

With `COc1ccc(CN(CCCCCCN(Cc2ccc(OC)cc2)CC23CC4CC(CC(C4)C2)C3)CC23CC4CC(CC(C4)C2)C3)cc1` the T/C (dose: 100.0 mg/kg/injection, schedule: Q04DX002 (ip), vehicle: saline with Tween-80) was 98 % of control, the T/C (dose: 200.0 mg/kg/injection, schedule: Q04DX002 (ip), vehicle: saline with Tween-80) was 94 % of control and the T/C (dose: 400.0 mg/kg/injection, schedule: Q04DX002 (ip), vehicle: saline with Tween-80) was 94 % of control.

`O=C(c1ccccc1)N1OC12CCCCC2` was tested, and the T/C [13] was 102 % of control and the T/C [14] was 99 % of control.

In the case of `COc1ccc(/C=C2\C=C3OCOC3=CC2=O)cc1`, the T/C (dose: 2.5 mg/kg/injection, schedule: Q01DX009 (ip), vehicle: saline with Tween-80) is reported as 100 % of control, the T/C (dose: 5.0 mg/kg/injection, schedule: Q01DX009 (ip), vehicle: saline with Tween-80) is reported as 100 % of control and the T/C (dose: 10.0 mg/kg/injection, schedule: Q01DX009 (ip), vehicle: saline with Tween-80) is reported as 100 % of control.

In the case of `O=[N+]([O-])c1ccc(Sc2nccc(Cl)n2)c([N+](=O)[O-])c1`, the T/C (dose: 50.0 mg/kg/injection, schedule: Q01DX009 (ip), vehicle: suspension in saline) is reported as 100 % of control, the T/C [2] is reported as 92 % of control and the T/C (dose: 100.0 mg/kg/injection, schedule: Q01DX009 (ip), vehicle: suspension in saline) is reported as 98 % of control. The T/C [3] was 104 % of control and the T/C (dose: 200.0 mg/kg/injection, schedule: Q01DX009 (ip), vehicle: suspension in saline) was 91 % of control.

`CCOC(=O)c1cnc(N)nc1CCC(=O)O` was tested, and the T/C (dose: 37.5 mg/kg/injection, schedule: Q01DX009 (ip), vehicle: saline with Tween-80) was 107 % of control, the T/C (dose: 75.0 mg/kg/injection, schedule: Q01DX009 (ip), vehicle: saline with Tween-80) was 102 % of control and the T/C (dose: 150.0 mg/kg/injection, schedule: Q01DX009 (ip), vehicle: saline with Tween-80) was 107 % of control.

In the case of `NC(Cc1ccccc1)C(=O)NCC(=O)NC(Cc1ccccc1)C(=O)NCC(=O)O` (stereo unspecified) (H-FGFG-OH; configuration not given here), the T/C [13] is reported as 96 % of control, the T/C [14] is reported as 98 % of control and the T/C [15] is reported as 102 % of control.

With `CCCCCCN(CCCCCC)CC(O)c1ccc(Br)c2ccccc12` (stereo unspecified) the T/C (dose: 50.0 mg/kg/injection, schedule: Q01DX005 (ip), vehicle: saline with Tween-80) was 93 % of control, the T/C (dose: 100.0 mg/kg/injection, schedule: Q01DX005 (ip), vehicle: saline with Tween-80) was 93 % of control and the T/C (dose: 200.0 mg/kg/injection, schedule: Q01DX005 (ip), vehicle: saline with Tween-80) was 88 % of control.

In the case of `CCOC(=O)c1cnc2c(C(F)(F)F)cccc2c1N=[N+]=[N-]`, the T/C [16] is reported as 99 % of control, the T/C [17] is reported as 96 % of control and the T/C [18] is reported as 95 % of control.

In the case of `OC(c1cc(-c2ccc(C(F)(F)F)cc2)nc(-c2ccc(C(F)(F)F)cc2)c1)C1CCCCN1` (stereo unspecified), the T/C [9] is reported as 109 % of control, the T/C [10] is reported as 107 % of control and the T/C [19] is reported as 89 % of control.

With `CCOC(=O)CNC(=O)NCc1ccccc1` the T/C [16] was 108 % of control, the T/C [17] was 90 % of control and the T/C [18] was 96 % of control.

`Cc1cc(N/N=C/c2ccc(Br)cc2)c2cc3c(cc2n1)OCO3` was tested, and the T/C [13] was 94 % of control, the T/C [14] was 96 % of control and the T/C [15] was 96 % of control.

For `CC(C)(C)c1cc(-c2c3nc(c(-c4cc(C(C)(C)C)c(O)c(C(C)(C)C)c4)c4ccc([nH]4)c(-c4cc(C(C)(C)C)c(O)c(C(C)(C)C)c4)c4nc(c(-c5cc(C(C)(C)C)c(O)c(C(C)(C)C)c5)c5ccc2[nH]5)C=C4)C=C3)cc(C(C)(C)C)c1O`, the T/C [16] was 90 % of control, the T/C [17] was 88 % of control and the T/C [18] was 88 % of control.

For `CCOC(=O)C1SC(=S)N(c2ccccc2)C1N` (stereo unspecified), the T/C [20] was 98 % of control, the T/C [21] was 104 % of control and the T/C [1] was 105 % of control and 86 % of control.

For `Cn1/c2cc/c1=C(\c1ccc(S(=O)(=O)O)cc1)c1ccc([n-]1)/C(c1ccc(S(=O)(=O)O)cc1)=c1/cc/c([nH]1)=C(\c1ccc(S(=O)(=O)O)cc1)c1ccc([n-]1)/C=2c1ccc(S(=O)(=O)O)cc1.O.O=S(=O)(O)C(F)(F)F.[Cu+2]`, the T/C [10] was 112 % of control, the T/C [19] was 121 % of control and the T/C [6] was 119 % of control. For the same molecule, the T/C [1] was 92 % of control and the T/C [2] was 100 % of control.

For `CCCCCCCCCCCCCCCCOP(=O)(O)OCCCCCCCCCCCCCCCC`, the T/C [11] was 88 % of control and the T/C [12] was 90 % of control.

For `OCCNC(Cc1ccccc1)c1c(O)ccc2ccccc12` (stereo unspecified), the T/C [13] was 100 % of control, the T/C [14] was 94 % of control and the T/C [15] was 100 % of control.

For `O=c1[nH]c(=O)c2sc3ncccc3c2[nH]1`, the T/C (dose: 6.25 mg/kg/injection, schedule: Q01DX009 (ip), vehicle: saline) was 119 % of control, the T/C [20] was 100 % of control and the T/C [21] was 101 % of control.
